Data on two compounds can be found in patent US9403855B2 (priority 2010, dated 2016).

Structures are written as SMILES.

The target in experiment [1] is T1, H274Y neuraminidase mutant from A/WSN/1933 (H1N1) (Influenza A virus, UniProt P03470, H259Y). As to the kind of experiment: cell-based. Details: species or system Influenza virus A/WSN/1933 (H1N1) H274Y mutant.
The target in experiment [2] is T1, H274Y neuraminidase mutant from A/WSN/1933 (H1N1). Description: biochemical. Details: species or system Influenza virus A/WSN/1933 (H1N1) H274Y mutant.

The EC50 is the concentration that produces a half-maximal response. Low readings indicate an effect from little substance, high ones a need for much substance. Broadly, the IC50 is the concentration needed to halve the response being measured. A high value points to weaker potency. The compound `CC(=O)N[C@H]1[C@H]([C@H](O)[C@H](O)CO)OC(P(=O)(O)O)=C[C@@H]1N` [1a, (5-Acetamido-4-amino-6-(1,2,3-hydroxy)propyl-4,5,6-trihydropyran-2-yl) phosphonic acid] had an EC50 in experiment [1] of 27 nM. For the same compound, it took 0.5 nM to reach half-maximal inhibition in experiment [2] (IC50).

In experiment [1], `CC(=O)N[C@H]1[C@H]([C@H](O)[C@H](O)CO)OC(P(=O)(O)O)=C[C@@H]1NC(=N)N` [1b, (5-Acetamido-4-guanidino-6-(1,2,3-hydroxy)propyl-4,5,6-trihydropyran-2-yl) phosphonic acid] came in with an EC50 of 26 nM. Also, in experiment [2], the IC50 amounted to 0.25 nM.
